Results taken from patent US20080113956A1, “Substituted Porphyrins” (priority 1997, published 2008).
Like-named read-outs stand apart in the source and are kept apart here.

Tests used:
[1] = system: lung injury; assay: Bronchopulmonary dysplasia model: premature neonatal baboon in 100% oxygen; format: in vivo
Source text: Neonatal baboons were delivered prematurely by Caesarian section and then treated either with 100% oxygen or only sufficient PRN FIO2 to maintain adequate arterial oxygenation. To establish the model, thirteen 100% oxygen treated animals and twelve PRN control animals were studied. Treatment with 100% oxygen results in extensive lung injury manifested by days 9 or 10 of exposure and characterized by delayed alveolarization, lung parenchymal inflammation, and poor oxygenation. This is characteristic of the human disease, bronchopulmonary dysplasia and is thought to be mediated, at least in part, by oxidative stress on the developing neonatal lung. In a first trial of Mn TE-2-PyP, a neonatal baboon was delivered at 140 days gestation and placed in 100% oxygen. The animal received 0.5 mg/kg/24 hr Mn TE-2-PyP qd given i.v. in a continuous infusion over the entire 10 day study period.

[2] = system: isolated, perfused mouse liver; assay: Isolated, perfused mouse liver, global ischemia/reperfusion injury; details: 10 μm in perfusate
Procedure: The ability of Mn TE-2-PyP to attenuate injury associated with 60 minutes of global ischemia followed by 90 minutes of reperfusion was assessed in an isolated, perfused mouse liver model. Excised livers were perfused with a buffered salt solution for 15 minutes after which the metalloporphyrin was introduced into the perfusate and the liver perfused in a recirculating system for an additional 15 minutes. The livers were then rendered globally ischemic under normal thermic conditions for 60 minutes. Following the ischemic period the livers were perfused for 90 minutes with perfusate supplemented with 10 μm Mn TE-2-PyP. In this model the ischemia/reperfused livers have a marked release of hepatocellular enzymes, aspartate transaminase, alanine transaminase, and lactate dehydrogenase during the first 2½ minutes of reperfusion. This is followed by a progressive release of hepatocellular enzymes indicating hepatocellular injury over the 90 minute perfusion period. […] At the end of the experiments liver […]. […] They remain firm and with a normal texture to gross morphologic examination.

[3] = system: DNA; assay: SOD activity in vitro in the presence of DNA (DNA interaction); format: biochemical
Source text: The “ortho effect” also decreases the toxicity. It is well known that porphyrins, and particularly cationic porphyrins, interact with DNA and can act as DNA cleavers. This fact can be an issue in the use of metallo-porphyrins as anti-tumor drugs. The present mimetics avoid this interaction.
In order to maximize the decrease in toxicity due to interaction with DNA, two derivatives of the ortho compound have been prepared which carry four ethyl or four butyl groups (“4” and “5”, respectively).

[4] = system: airway hyperreactivity; assay: Airway hyperreactivity to methacholine in ovalbumin sensitized mice; format: in vivo, mouse; details: intratracheal 2 μg daily for 4 days, methacholine 20, 30 and 40 mg/ml
Procedure: Mice were sensitized by intraperitoneal injection of ovalbumin twice, 14 days apart. Fourteen days after the second i.p. injection they were challenged with aerosolized ovalbumin daily for three days. Forty-eight hours after the third inhalation of ovalbumin they were given a 1 minute methacholine challenge and airway hyperreactivity followed using a Buxco body plethysmograph. Significant increases in airway resistance as measured by the PENH index occurred at doses of 20, 30 and 40 mg/ml of methacholine. […] This dose of in TM-2-PyP is equivalent to 0.8 mg/kg whole body dose.

[5] = system: rat brain homogenates; assay: Iron/ascorbate mediated lipid peroxidation of rat brain homogenates (TBARS); format: biochemical; details: for IC50: rat brain homogenate, 30 minutes incubation with iron and ascorbate, TBARS
Procedure: Frozen adult Sprague-Dawley rat brains (Pel-Freez, Rogers, Ark.) were homogenized with a polytron (Turrax T25, Germany) in 5 volumes of ice cold 50 mM potassium phosphate at pH 7.4. Homogenate protein concentration was determined with the Coomassie Plus protein assay (Pierce, Rockford, Ill.) using bovine serum albumin as a standard. The homogenate volume was adjusted with buffer to give a final protein concentration of 10 mg/ml and frozen as aliquots at […].
Rat brain homogenates (2 mg protein) were incubated with varying concentrations of antioxidant at 37° C. for 15 minutes. Oxidation of the rat brain homogenate was initiated by the addition of 0.1 ml of a freshly prepared anaerobic stock solution containing iron(II) chloride (0.25 mM) and ascorbate (1 mM) as previously reported (Braughler et al, J. Biol. Chem. 262:10438 (1987)). Samples (final volume 1 ml) were placed in a shaking water bath at 37° C. for 30 minutes. The reactions were stopped by the addition of 0.1 ml of a stock butylated hydroxytoluene (60 mM) solution in ethanol.
The concentration of thiobarbituric acid reactive species (TBARS) in rat brain homogenates was used as a index of lipid peroxidation (Bernhem et al, J. Biol. Chem. 174:257 (1948); Witz et al, J. Free Rad. Biol. Med. 2:33 (1986); Kikugawa et al, Anal. Biochem. 202:249 (1992); Jentzsch et al, Free Rad. Biol. Med. 20P251 (1996)). Malondialdehyde standards were obtained by adding 8.2 μl of 1,1,3,3-tetramethoxypropane in 10 ml of 0.01 M HCl and mixing for 10 minutes at room temperature. This stock was further diluted in water to give standards that ranged from 0.25 to 25 μM. Samples or standards (200 μl) were acidified with 200 μl of 0.2 M phosphoric acid in 1.5 ml locking microfuge tubes. The color reaction was initiated by the addition of 25 μl of a 0.11M thiobarbituric acid solution and samples were placed in a 90° C. heating block for 45 minutes. TBARS were extracted with 0.5 ml of n-butanol by vortexing samples for 3 minute and chilling on ice for 1 minute. The samples were then centrifuged at 12,000×g for 3 minutes, 150 μl aliquots of the n-butanol phase were placed in each well of a 96-well plate and read at 535 nm in a Thermomax platereader (Molecular Devices, Sunnyvale, Calif.) at 25° C. Sample absorbencies were converted to MDA equivalencies (μM) by extrapolation from the MDA standard curve. None of the antioxidants at concentrations employed in these studies affected the reaction of MDA standards with thiobarbituric acid and reactions without TBA were used as subtraction blanks.
Data were presented as their means ±SE. The inhibitory concentration of antioxidants that decreased the degree of lipid peroxidation by 50% (IC50) and respective 95% confidence intervals (CI) were determined by fitting a sigmoidal curve with variable slope to the data (GraphPad Prizm, San Diego, Calif.).

[6] = literature comparators, cited from earlier work

| Compound | lung pathology: inflammation ([1]; 0.5 mg/kg/24 hr i.v., 10 days) | clinical decompensation of the lungs ([1]; days 9 and 10, 0.5 mg/kg/24 hr i.v.) | oxygenation index ([1]; neonatal baboon, 100% oxygen, 0.5 mg/kg/24 hr i.v. continuous infusion, 10 days) | lung pathology: lung injury ([1]; vs prior animals treated with 100% oxygen) | attenuation of liver injury ([2]; 60 minutes global ischemia, 90 minutes reperfusion) | acute hepatocellular enzyme release ([2]; first 2½ minutes of reperfusion) | progressive hepatocellular enzyme release ([2]; over the 90 minute perfusion period) | toxicity due to interaction with DNA, comparison between ortho derivatives ([3]; Table 2 and FIG. 3) | airway hyperreactivity (PENH index) [4] | increase in potency as lipid peroxidation inhibitor, ortho vs para ([5]; MnTM-2-PyP vs MnTM-4-PyP) [fold] | IC50 [5] [µM] | kcat of comparison compounds ([6]; listed as MnTM-2-PyP^3−) | interaction with DNA ([3]; SOD activity in vitro in the presence of DNA) | kcat of comparison compounds [6] |
| --- | --- | --- | --- | --- | --- | --- | --- | --- | --- | --- | --- | --- | --- | --- |
| CC[n+]1ccccc1-c1c2nc(c(-c3cccc[n+]3CC)c3ccc([n-]3)c(-c3cccc[n+]3CC)c3nc(c(-c4cccc[n+]4CC)c4ccc1[n-]4)C=C3)C=C2.[Mn+3] [MnTE-2-PyP^5+, manganic meso-tetrakis-(N-ethylpyridinium-2-yl)porphyrin] | absence of inflammation | no evidence of clinical decompensation | marked improvement | marked decrease | highly efficacious in attenuating the liver injury | blocking virtually all | blocking progressive hepatocellular enzyme release | significantly less toxic than the methyl derivative |  |  |  |  |  |  |
| manganese(III) 5,10,15,20-tetrakis(N-methylpyridyl)porphyrin [MnTM-2-PyP^5+] |  |  |  |  |  |  |  |  | statistically significant reduction | 15 | 1 | 6.0 10^7 M^−1 s^−1 | greatly decreased |  |
| manganese(III) 5,10,15,20-tetrakis(N-methylpyridyl)porphyrin [MnTM-4-PyP^5+, reference compound] |  |  |  |  |  |  |  |  |  |  | 16 |  |  | 0.4 10^7 M^−1 s^−1 |
